Target: PI3Kβ (Homo sapiens (Human), UniProt P42338)
Assay: In vitro enzyme inhibition assay (Kinase Glo based enzyme activity assay)
Type: biochemical
Conditions: Test (a), Table A
Description: (a) In Vitro Enzyme Inhibition Assay
The inhibition of PI3Kβ, PI3Kα, PI3Kγ and PI3Kδ was evaluated in a Kinase Glo based enzyme activity assay using human recombinant enzymes. The assay measures depletion of ATP after incubation with enzyme, PIP2 and ATP plus compound. ATP at the end of the reaction is detected by addition of Kinase Glo reagent, in this the Ultra Glo™ luciferase (Promega) uses the ATP as a substrate to catalyze the mono-oxygenation of luciferin and the generation of light. A direct relationship exists between the luminescence measured with the Kinase-Glo Plus Reagent and the amount of ATP remaining in a completed kinase reaction and luminescence is inversely related to kinase activity.
Compounds in 100% DMSO were added to assay plates by acoustic dispensing. PI3Kβ was added in a Tris buffer (50 mM Tris pH7.4, 0.05% CHAPS, 2.1 mM DTT, and 10 mM MgCl2) and allowed to preincubate with compound for 20 minutes prior to addition of substrate solution containing PIP2 and ATP. The enzyme reaction was stopped after 80 minutes by the addition of Kinase Glo detection solution. Plates were left for 30 minutes at room temperature then read on a Pherastar Instrument (Luminescence ATP 384 program) setting gain on max well. […]
IC50 values were calculated using a log curve fitting to a non-linear regression package, fitting raw data to inhibitor concentration.

PI3Kβ, sequence (P42338 whole entry): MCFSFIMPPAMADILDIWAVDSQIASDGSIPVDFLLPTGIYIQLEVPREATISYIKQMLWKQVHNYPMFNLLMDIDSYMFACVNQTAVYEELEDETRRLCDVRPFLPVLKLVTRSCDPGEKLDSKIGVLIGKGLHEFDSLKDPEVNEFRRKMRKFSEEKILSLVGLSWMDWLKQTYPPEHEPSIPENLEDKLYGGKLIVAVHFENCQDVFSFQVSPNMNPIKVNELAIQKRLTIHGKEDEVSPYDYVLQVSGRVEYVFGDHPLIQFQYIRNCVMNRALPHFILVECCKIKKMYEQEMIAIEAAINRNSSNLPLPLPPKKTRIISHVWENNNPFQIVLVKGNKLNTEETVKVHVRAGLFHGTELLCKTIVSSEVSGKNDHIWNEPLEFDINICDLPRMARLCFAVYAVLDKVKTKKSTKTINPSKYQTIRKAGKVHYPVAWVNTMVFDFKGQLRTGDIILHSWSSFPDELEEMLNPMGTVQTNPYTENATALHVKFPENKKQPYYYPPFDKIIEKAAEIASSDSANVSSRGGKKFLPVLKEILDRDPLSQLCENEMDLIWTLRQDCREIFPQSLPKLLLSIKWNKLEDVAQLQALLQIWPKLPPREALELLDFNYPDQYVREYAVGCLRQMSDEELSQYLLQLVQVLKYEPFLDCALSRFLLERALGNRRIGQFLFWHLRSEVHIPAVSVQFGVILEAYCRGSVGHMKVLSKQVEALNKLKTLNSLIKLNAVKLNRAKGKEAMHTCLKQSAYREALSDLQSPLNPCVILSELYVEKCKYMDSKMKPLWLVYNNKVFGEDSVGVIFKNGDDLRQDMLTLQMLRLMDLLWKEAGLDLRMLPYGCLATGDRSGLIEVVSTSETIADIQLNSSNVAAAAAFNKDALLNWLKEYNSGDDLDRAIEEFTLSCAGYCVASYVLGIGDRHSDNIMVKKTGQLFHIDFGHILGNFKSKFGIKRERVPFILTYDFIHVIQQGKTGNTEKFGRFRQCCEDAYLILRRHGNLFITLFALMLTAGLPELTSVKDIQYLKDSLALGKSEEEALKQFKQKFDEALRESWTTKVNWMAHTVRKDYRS
PI3Kβ, sequence (P27986 whole entry partner): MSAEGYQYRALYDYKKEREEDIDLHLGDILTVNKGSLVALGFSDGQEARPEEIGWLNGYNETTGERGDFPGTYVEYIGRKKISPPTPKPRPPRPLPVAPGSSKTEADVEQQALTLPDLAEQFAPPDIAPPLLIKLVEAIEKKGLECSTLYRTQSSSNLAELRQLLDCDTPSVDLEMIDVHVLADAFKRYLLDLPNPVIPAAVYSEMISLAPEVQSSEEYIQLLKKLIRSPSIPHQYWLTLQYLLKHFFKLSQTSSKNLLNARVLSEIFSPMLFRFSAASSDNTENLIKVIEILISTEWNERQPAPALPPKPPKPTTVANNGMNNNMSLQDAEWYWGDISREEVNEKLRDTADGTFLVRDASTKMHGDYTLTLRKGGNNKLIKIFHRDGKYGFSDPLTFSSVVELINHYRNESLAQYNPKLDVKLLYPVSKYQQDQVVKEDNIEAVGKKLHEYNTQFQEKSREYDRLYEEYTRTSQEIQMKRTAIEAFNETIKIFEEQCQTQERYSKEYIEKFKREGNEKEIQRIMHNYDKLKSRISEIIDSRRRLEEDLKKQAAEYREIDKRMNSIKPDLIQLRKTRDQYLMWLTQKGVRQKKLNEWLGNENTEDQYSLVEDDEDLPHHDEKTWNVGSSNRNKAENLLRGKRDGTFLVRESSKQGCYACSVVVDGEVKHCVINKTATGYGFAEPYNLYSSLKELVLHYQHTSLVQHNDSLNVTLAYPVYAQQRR

IC50: 6 nM
SMILES: CC(c1cc(C(=O)NCCN(C)C)cc2c(=O)cc(N3CCOCC3)oc12)N(C)c1ccc(F)c(F)c1 (stereo not shown) [Example 3.01, 8-(1-((3,4-difluorophenyl)(methyl)amino)ethyl)-N-(2-(dimethylamino)ethyl)-2-morpholino-4-oxo-4H-chromene-6-carboxamide]

From patent publication US9718800B2, “Chromenone derivatives” (AstraZeneca AB, priority 2009, dated 2017)
